Earlier results in publication PMC6959220, “Glycofullerenes as non-receptor tyrosine kinase inhibitors- towards better nanotherapeutics for pancreatic cancer treatment” (Scientific Reports, 2020).

Tested on: NHDF
Parameters: method as in PMID 30562697

Cc1nc(Nc2ncc(C(=O)Nc3c(C)cccc3Cl)s2)cc(N2CCN(CCO)CC2)n1 [Dasatinib, dasatinib]
cytotoxic effects on a normal cell line: cytotoxic effects
